Among the data in patent US9051280B2, “Tetraline and indane derivatives, pharmaceutical compositions containing them, and their use in therapy” (AbbVie Deutschland GmbH & Co. KG, priority 2010, dated 2015) are Ki values, retold here.

The target in this experiment is human GlyT1c transporter (Homo sapiens (Human), UniProt P48067). The experiment can be described thus: Radioligand binding assay using recombinant CHO cell membranes expressing human GlyT1. As to conditions: read-out: radioligand binding Kiapp. The procedure: Biological Testing • 1. [^3H]-Glycine uptake into recombinant CHO cells expressing human GlyT1: Human GlyT1c expressing recombinant hGlyT1c—5_CHO cells were plated at 20,000 cells per well in 96 well Cytostar-T scintillation microplates (Amersham Biosciences) and cultured to sub-confluency for 24 h. For glycine uptake assays the culture medium was aspirated and the cells were washed once with 100 μl HBSS (Gibco BRL, #14025-050) with 5 mM L-Alanine (Merck #1007). 80 μl HBSS buffer were added, followed by 10 μl inhibitor or vehicle (10% DMSO) and 10 μl [^3H]-glycine (TRK71, Amersham Biosciences) to a final concentration of 200 nM for initiation of glycine uptake. The plates were placed in a Wallac Microbeta (PerkinElmer) and continuously counted by solid phase scintillation spectrometry during up to 3 hours. Nonspecific uptake was determined in the presence of 10 μM Org24598. IC50 calculations were made by four-parametric logistic nonlinear regression analysis (GraphPad Prism) using determinations within the range of linear increase of [^3H]-glycine incorporation between 60 and 120 min. • 2. Radioligand binding assays using recombinant CHO cell membranes expressing human GlyT1:
Radioligand binding to human GlyT1c transporter-expressing membranes was determined as described in Mezler et al., Molecular Pharmacology 74:1705-1715, 2008.

Some results are limits rather than exact numbers.

human GlyT1c transporter, sequence (P48067 whole entry): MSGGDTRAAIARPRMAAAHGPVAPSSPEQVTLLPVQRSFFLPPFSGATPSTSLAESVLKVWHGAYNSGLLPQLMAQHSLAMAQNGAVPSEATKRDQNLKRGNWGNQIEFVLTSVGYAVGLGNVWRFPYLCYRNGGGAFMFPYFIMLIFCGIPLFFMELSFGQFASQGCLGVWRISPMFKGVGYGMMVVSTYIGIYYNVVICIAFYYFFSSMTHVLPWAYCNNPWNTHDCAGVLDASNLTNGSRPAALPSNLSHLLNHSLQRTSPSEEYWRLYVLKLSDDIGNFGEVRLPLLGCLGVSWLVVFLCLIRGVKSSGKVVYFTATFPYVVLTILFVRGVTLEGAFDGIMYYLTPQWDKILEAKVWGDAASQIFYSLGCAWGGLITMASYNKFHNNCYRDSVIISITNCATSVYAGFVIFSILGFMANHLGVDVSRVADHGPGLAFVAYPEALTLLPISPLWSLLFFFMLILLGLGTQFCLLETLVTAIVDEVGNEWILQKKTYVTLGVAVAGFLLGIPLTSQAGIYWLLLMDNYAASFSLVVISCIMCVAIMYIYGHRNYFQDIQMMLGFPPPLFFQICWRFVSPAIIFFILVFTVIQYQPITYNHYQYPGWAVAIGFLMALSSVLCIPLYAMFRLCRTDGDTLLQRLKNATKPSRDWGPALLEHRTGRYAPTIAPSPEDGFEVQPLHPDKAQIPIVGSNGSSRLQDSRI

Consider `CCS(=O)(=O)NCCOc1ccc2c(c1)[C@H](Cc1ccccc1)[C@H](CN)CC2` (stereo in doubt) [Example 195, Ethanesulfonic acid [2-(7-aminomethyl-8-benzyl-5,6,7,8-tetrahydro-naphthalen-2-yloxy)-ethyl]-amide], for which the Ki was ≤ 100 nM. With `NC[C@@H]1CCc2ccc(OCCNS(=O)(=O)CC3CC3)cc2[C@@H]1Cc1ccccc1` (stereo in doubt) [Example 196, N-[2-(7-Aminomethyl-8-benzyl-5,6,7,8-tetrahydro-naphthalen-2-yloxy)-ethyl]-C-cyclopropyl-methanesulfonamide], the Ki was ≤ 100 nM. The result for `CCS(=O)(=O)NCCOc1ccc2c(c1)[C@H](Cc1ccccc1)[C@H](CNC)CC2` (stereo in doubt) [Example 198, Ethanesulfonic acid [2-(8-benzyl-7-methylaminomethyl-5,6,7,8-tetrahydro-naphthalen-2-yloxy)-ethyl]-amide] reads ≤ 100 nM; that for `CNC[C@@H]1CCc2ccc(OCCNS(=O)(=O)CC3CC3)cc2[C@@H]1Cc1ccccc1` (stereo in doubt) [Example 199, N-[2-(8-Benzyl-7-methylaminomethyl-5,6,7,8-tetrahydro-naphthalen-2-yloxy)-ethyl]-C-cyclopropyl-methanesulfonamide], ≤ 100 nM.

Take `CCS(=O)(=O)NCCOc1ccc2c(c1)[C@H](Cc1ccccc1)[C@H](CN1CCC1)CC2` (stereo in doubt) [Example 200, Ethanesulfonic acid [2-(7-azetidin-1-ylmethyl-8-benzyl-5,6,7,8-tetrahydro-naphthalen-2-yloxy)-ethyl]-amide]: the Ki is ≤ 500 nM.

In the case of `O=S(=O)(CC1CC1)NCCOc1ccc2c(c1)[C@H](Cc1ccccc1)[C@H](CN1CCC1)CC2` (stereo in doubt) [Example 201, N-[2-(7-Azetidin-1-ylmethyl-8-benzyl-5,6,7,8-tetrahydro-naphthalen-2-yloxy)-ethyl]-C-cyclopropyl-methanesulfonamide], the Ki was ≤ 100 nM.

As for `Cn1cnc(S(=O)(=O)NCCOc2ccc3c(c2)[C@H](Cc2ccccc2)[C@H](CN2CCC2)CC3)c1` (stereo in doubt) [Example 202, 1-Methyl-1H-imidazole-4-sulfonic acid [2-(7-azetidin-1-ylmethyl-8-benzyl-5,6,7,8-tetrahydro-naphthalen-2-yloxy)-ethyl]-amide], the Ki was ≤ 100 nM.

As to `Cn1cnc(S(=O)(=O)NCc2ccc3c(c2)[C@H](Cc2ccccc2)[C@H](CN2CCC2)CC3)c1` (stereo in doubt) [Example 203, 1-Methyl-1H-imidazole-4-sulfonic acid (7-azetidin-1-ylmethyl-8-benzyl-5,6,7,8-tetrahydro-naphthalen-2-ylmethyl)-amide], the Ki is ≤ 100 nM.
